Source: ChEMBL document CHEMBL1201862, “PubChem BioAssay data set” (2004)
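Five concentrations, 48 hours, 96-well plates. Abbreviation: GI50, concentration required for 50% inhibition of growth.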 The source made the active and inactive calls. No stated cut-off is given here; in the data, active = GI50 up to about 1.1 µM and inactive = higher.

How the values were obtained:
Assay in all cases: inhibition of tumour cell growth, NCI panel, 48 h
LOX IMVI = system: LOX IMVI
HT-29 = system: HT-29
A549 = system: A549
SNB-75 = system: SNB-75
TK-10 = system: TK-10
U-251 = system: U-251
ACHN = system: ACHN
SNB-19 = system: SNB-19
KM12 = system: KM12
SK-OV-3 = system: SK-OV-3
HCT-116 = system: HCT-116
RXF 393 = system: RXF 393
M14 = system: M14
SW-620 = system: SW-620
NCI-H23 = system: NCI-H23
SK-MEL-2 = system: SK-MEL-2
786-0 = system: 786-0
SR = system: SR
SF-539 = system: SF-539
A498 = system: A498

Q: What does the source list for `c1ccc2cc(-c3cc(-c4cc(-c5ccc6ccccc6c5)on4)no3)ccc2c1`?
A: GI50 (LOX IMVI): > 100 µM (inactive); GI50 (HT-29): > 100 µM (inactive); GI50 (A549): > 100 µM (inactive); GI50 (SNB-75): 64.7 µM (inactive); GI50 (TK-10): > 100 µM (inactive); GI50 (U-251): > 100 µM (inactive); GI50 (ACHN): > 100 µM (inactive); GI50 (SNB-19): 15 µM (inactive); GI50 (KM12): > 100 µM (inactive); GI50 (SK-OV-3): > 100 µM (inactive); GI50 (HCT-116): > 100 µM (inactive); GI50 (RXF 393): > 100 µM (inactive); GI50 (M14): > 100 µM (inactive); GI50 (SW-620): > 100 µM (inactive); GI50 (NCI-H23): > 100 µM (inactive); GI50 (SK-MEL-2): > 100 µM (inactive); GI50 (786-0): > 100 µM (inactive); GI50 (SR): 55.7 µM (inactive); GI50 (SF-539): > 100 µM (inactive); GI50 (A498): > 100 µM (inactive)

Q: Which results are given for `CCCCSCc1nc2nc(Cl)c(Cl)nc2[nH]1`?
A: GI50 (LOX IMVI): 21.7 µM (inactive); GI50 (HT-29): 30.8 µM (inactive); GI50 (A549): 28.8 µM (inactive); GI50 (SNB-75): 19 µM (inactive); GI50 (TK-10): 27.9 µM (inactive); GI50 (U-251): 20.9 µM (inactive); GI50 (ACHN): 23.9 µM (inactive); GI50 (SNB-19): 35.3 µM (inactive); GI50 (KM12): 29.8 µM (inactive); GI50 (SK-OV-3): 18.7 µM (inactive); GI50 (HCT-116): 19.5 µM (inactive); GI50 (RXF 393): 19.4 µM (inactive); GI50 (M14): 23.8 µM (inactive); GI50 (SW-620): 28.5 µM (inactive); GI50 (NCI-H23): 16.8 µM (inactive); GI50 (SK-MEL-2): 18.7 µM (inactive); GI50 (786-0): 25.6 µM (inactive); GI50 (SR): 22 µM (inactive); GI50 (SF-539): 50.2 µM (inactive); GI50 (A498): 21.8 µM (inactive)

Q: For `CCOc1cc2c(cc1O)/C(=N\N)C[C@@H]1[C@@H]2CC[C@]2(C)[C@@H](O)CC[C@@H]12`, which GI50 (LOX IMVI) is on record?
A: 4.12 µM (inactive)

Q: What about the GI50 (HT-29) of the same compound?
A: 9.53 µM (inactive)

Q: What about the GI50 (A549) of the same compound?
A: 8.75 µM (inactive)

Q: What about the GI50 (SNB-75) of the same compound?
A: 3.1 µM (inactive)

Q: And the GI50 (TK-10)?
A: 22.2 µM (inactive)

Q: What about the GI50 (U-251) of the same compound?
A: 3.78 µM (inactive)

Q: What about the GI50 (ACHN) of the same compound?
A: 5.61 µM (inactive)

Q: And the GI50 (SNB-19)?
A: 3.87 µM (inactive)

Q: And the GI50 (KM12)?
A: 4.71 µM (inactive)

Q: What about the GI50 (SK-OV-3) of the same compound?
A: 5.18 µM (inactive)

Q: And the GI50 (HCT-116)?
A: 2.34 µM (inactive)

Q: What about the GI50 (RXF 393) of the same compound?
A: 5.75 µM (inactive)

Q: And the GI50 (M14)?
A: 4.8 µM (inactive)

Q: What about the GI50 (SW-620) of the same compound?
A: 1.85 µM (inactive)

Q: What about the GI50 (NCI-H23) of the same compound?
A: 7.01 µM (inactive)

Q: What about the GI50 (SK-MEL-2) of the same compound?
A: 4.38 µM (inactive)

Q: What about the GI50 (786-0) of the same compound?
A: 4.48 µM (inactive)

Q: What about the GI50 (SR) of the same compound?
A: 0.333 µM (active)

Q: And the GI50 (SF-539)?
A: 3.13 µM (inactive)

Q: And the GI50 (A498)?
A: 12.4 µM (inactive)

Q: `O=C(Nc1ccc(C(F)(F)F)cc1[N+](=O)[O-])C(=O)Nn1c(S)nc2ccccc2c1=O` was tested. Which GI50 (LOX IMVI) did it give?
A: > 100 µM (inactive)

Q: And the GI50 (HT-29)?
A: > 100 µM (inactive)

Q: What about the GI50 (A549) of the same compound?
A: > 100 µM (inactive)

Q: What about the GI50 (SNB-75) of the same compound?
A: > 100 µM (inactive)

Q: And the GI50 (TK-10)?
A: > 100 µM (inactive)

Q: And the GI50 (U-251)?
A: > 100 µM (inactive)

Q: And the GI50 (ACHN)?
A: > 100 µM (inactive)

Q: What about the GI50 (SNB-19) of the same compound?
A: > 100 µM (inactive)

Q: And the GI50 (KM12)?
A: > 100 µM (inactive)

Q: What about the GI50 (SK-OV-3) of the same compound?
A: > 100 µM (inactive)

Q: And the GI50 (HCT-116)?
A: > 100 µM (inactive)

Q: And the GI50 (RXF 393)?
A: > 100 µM (inactive)

Q: What about the GI50 (SW-620) of the same compound?
A: > 100 µM (inactive)

Q: And the GI50 (NCI-H23)?
A: > 100 µM (inactive)

Q: What about the GI50 (SK-MEL-2) of the same compound?
A: > 100 µM (inactive)

Q: And the GI50 (SR)?
A: > 100 µM (inactive)

Q: And the GI50 (SF-539)?
A: > 100 µM (inactive)

Q: And the GI50 (A498)?
A: > 100 µM (inactive)

Q: What does the source list for `CSC(=S)N/N=C(\C)c1cccc(C)n1`?
A: GI50 (LOX IMVI): 1.13 µM (inactive); GI50 (HT-29): 0.133 µM (active); GI50 (A549): 0.762 µM (active); GI50 (SNB-75): 1.86 µM (inactive); GI50 (TK-10): 0.975 µM (active); GI50 (U-251): 0.776 µM (active); GI50 (ACHN): 0.265 µM (active); GI50 (SNB-19): 4.04 µM (inactive); GI50 (KM12): 2.26 µM (inactive); GI50 (SK-OV-3): 0.719 µM (active); GI50 (HCT-116): 0.183 µM (active); GI50 (RXF 393): 0.998 µM (active); GI50 (M14): 0.312 µM (active); GI50 (SW-620): 0.208 µM (active); GI50 (NCI-H23): 0.975 µM (active); GI50 (SK-MEL-2): 3.48 µM (inactive); GI50 (786-0): 0.361 µM (active); GI50 (SR): 0.23 µM (active); GI50 (SF-539): 1.17 µM (inactive); GI50 (A498): 2.21 µM (inactive)

Q: `Nc1cccc(C#Cc2cccc(C#Cc3cccc(N)n3)n2)n1` was tested. Which GI50 (LOX IMVI) did it give?
A: > 100 µM (inactive)

Q: What about the GI50 (SNB-75) of the same compound?
A: > 100 µM (inactive)

Q: What about the GI50 (TK-10) of the same compound?
A: > 100 µM (inactive)

Q: And the GI50 (U-251)?
A: > 100 µM (inactive)

Q: What about the GI50 (ACHN) of the same compound?
A: > 100 µM (inactive)

Q: What about the GI50 (SNB-19) of the same compound?
A: > 100 µM (inactive)

Q: And the GI50 (KM12)?
A: > 100 µM (inactive)

Q: What about the GI50 (SK-OV-3) of the same compound?
A: > 100 µM (inactive)

Q: What about the GI50 (HCT-116) of the same compound?
A: > 100 µM (inactive)

Q: What about the GI50 (RXF 393) of the same compound?
A: > 100 µM (inactive)

Q: What about the GI50 (M14) of the same compound?
A: > 100 µM (inactive)

Q: And the GI50 (SW-620)?
A: > 100 µM (inactive)

Q: And the GI50 (NCI-H23)?
A: > 100 µM (inactive)

Q: What about the GI50 (SK-MEL-2) of the same compound?
A: > 100 µM (inactive)

Q: What about the GI50 (786-0) of the same compound?
A: 55.6 µM (inactive)

Q: What about the GI50 (SR) of the same compound?
A: 14 µM (inactive)

Q: What about the GI50 (SF-539) of the same compound?
A: 39.9 µM (inactive)

Q: What about the GI50 (A498) of the same compound?
A: > 100 µM (inactive)

Q: How did the GI50 (LOX IMVI) turn out when `N/C(=N\N=C\c1cc2ccccc2s1)c1cnccn1` was run?
A: > 100 µM (inactive)

Q: And the GI50 (HT-29)?
A: > 100 µM (inactive)

Q: What about the GI50 (A549) of the same compound?
A: > 100 µM (inactive)

Q: And the GI50 (SNB-75)?
A: 29.3 µM (inactive)

Q: And the GI50 (TK-10)?
A: 87.7 µM (inactive)

Q: What about the GI50 (U-251) of the same compound?
A: > 100 µM (inactive)

Q: What about the GI50 (ACHN) of the same compound?
A: > 100 µM (inactive)

Q: What about the GI50 (SNB-19) of the same compound?
A: 88.3 µM (inactive)

Q: What about the GI50 (KM12) of the same compound?
A: > 100 µM (inactive)

Q: What about the GI50 (SK-OV-3) of the same compound?
A: > 100 µM (inactive)

Q: And the GI50 (HCT-116)?
A: > 100 µM (inactive)

Q: What about the GI50 (RXF 393) of the same compound?
A: > 100 µM (inactive)

Q: And the GI50 (M14)?
A: > 100 µM (inactive)

Q: And the GI50 (SW-620)?
A: > 100 µM (inactive)

Q: And the GI50 (NCI-H23)?
A: > 100 µM (inactive)

Q: And the GI50 (SK-MEL-2)?
A: > 100 µM (inactive)

Q: And the GI50 (786-0)?
A: > 100 µM (inactive)

Q: And the GI50 (SR)?
A: 6 µM (inactive)

Q: And the GI50 (SF-539)?
A: > 100 µM (inactive)

Q: What about the GI50 (A498) of the same compound?
A: > 100 µM (inactive)
